Data reported in patent publication US8791132B2, “Compounds and methods for treatment of hypertension” (Medivation Technologies, Inc., priority 2011, dated 2014).
Where two headings read alike, the source gives them in different places. Each block holds one compound with its values, some of them ahead of it.

Tests used:
[1] = target: T1, human recombinant adrenergic α2A receptor (Homo sapiens, UniProt P08913); test: Radioligand binding, adrenergic α2A ([3H]MK-912); conditions: for Percentage inhibition of ligand binding, Adrenergic α2A (0.1 μM) / Percentage inhibition of ligand binding, Adrenergic α2A: 0.1 µM
T1 construct: expressed in transfected cells; host or cells: insect Sf9 cells
T1 sequence (P08913 1-465): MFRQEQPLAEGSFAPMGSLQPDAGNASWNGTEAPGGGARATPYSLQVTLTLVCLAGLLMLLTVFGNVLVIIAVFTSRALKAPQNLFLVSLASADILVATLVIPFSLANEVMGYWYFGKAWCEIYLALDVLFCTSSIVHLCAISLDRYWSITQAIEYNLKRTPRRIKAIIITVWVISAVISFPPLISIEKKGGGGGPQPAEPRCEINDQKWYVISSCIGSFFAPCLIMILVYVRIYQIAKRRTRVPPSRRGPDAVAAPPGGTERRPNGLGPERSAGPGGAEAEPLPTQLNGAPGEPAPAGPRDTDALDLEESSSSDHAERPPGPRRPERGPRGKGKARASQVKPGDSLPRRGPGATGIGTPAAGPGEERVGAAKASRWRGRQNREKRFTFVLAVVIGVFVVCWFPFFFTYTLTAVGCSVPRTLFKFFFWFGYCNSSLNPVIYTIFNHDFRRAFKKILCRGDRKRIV
Summary of the method: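 Sf9-expressed receptor was incubated with compound for 60 min at 25 °C in modified Tris-HCl buffer, pH 7.4. Nonspecific binding was taken as that remaining with 10 μM WB-4101.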

[2] = target: T2, human recombinant adrenergic α2B receptor (Homo sapiens, UniProt P18089); test: Radioligand binding, adrenergic α2B ([3H]Rauwolscine)
T2 construct: expressed in transfected cells; host or cells: CHO-K1
T2 sequence (P18089 1-450): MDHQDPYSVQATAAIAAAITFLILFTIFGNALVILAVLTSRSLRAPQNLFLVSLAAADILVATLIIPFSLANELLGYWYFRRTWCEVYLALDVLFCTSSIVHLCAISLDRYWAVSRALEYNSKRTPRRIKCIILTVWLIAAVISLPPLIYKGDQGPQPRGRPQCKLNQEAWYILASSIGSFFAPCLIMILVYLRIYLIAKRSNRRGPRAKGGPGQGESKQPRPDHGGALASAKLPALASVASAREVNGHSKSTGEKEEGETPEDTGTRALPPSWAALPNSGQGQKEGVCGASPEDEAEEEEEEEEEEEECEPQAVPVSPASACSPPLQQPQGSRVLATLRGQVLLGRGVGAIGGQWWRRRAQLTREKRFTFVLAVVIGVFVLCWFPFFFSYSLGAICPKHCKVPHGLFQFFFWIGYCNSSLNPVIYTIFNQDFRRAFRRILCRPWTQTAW
Summary of the method: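 Values are percent inhibition of specific radioligand binding. The receptor, expressed in CHO-K1 cells, was exposed to 2.5 nM [3H]Rauwolscine at 25° C for 60 min, with 10 μM Prazosin marking non-specific binding.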

[3] = target: T3, rat adrenergic α1B receptor (Rattus norvegicus, UniProt P15823); test: Radioligand binding, adrenergic α1B ([3H]Prazosin); conditions: for Percentage inhibition of ligand binding, Adrenergic α1B (0.1 μM) / Percentage inhibition of ligand binding, Adrenergic α1B: 0.1 µM
T3 construct: rat adrenergic α1B receptor obtained from Wistar Rat liver; from tissue; host or cells: Wistar rat liver
T3 sequence (P15823 1-515): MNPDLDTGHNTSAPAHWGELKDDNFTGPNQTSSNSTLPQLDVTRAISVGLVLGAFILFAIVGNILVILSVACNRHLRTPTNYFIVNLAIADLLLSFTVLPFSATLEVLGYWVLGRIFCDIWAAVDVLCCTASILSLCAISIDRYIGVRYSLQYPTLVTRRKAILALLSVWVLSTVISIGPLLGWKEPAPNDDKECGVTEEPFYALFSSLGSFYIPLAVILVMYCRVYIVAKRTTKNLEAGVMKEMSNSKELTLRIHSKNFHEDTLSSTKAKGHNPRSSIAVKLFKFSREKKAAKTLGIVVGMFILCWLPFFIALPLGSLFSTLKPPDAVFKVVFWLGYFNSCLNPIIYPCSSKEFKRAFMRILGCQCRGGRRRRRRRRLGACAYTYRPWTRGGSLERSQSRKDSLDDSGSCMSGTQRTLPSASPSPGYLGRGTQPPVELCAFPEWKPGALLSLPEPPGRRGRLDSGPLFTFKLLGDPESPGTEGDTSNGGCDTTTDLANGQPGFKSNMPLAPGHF
Summary of the method: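 Incubation ran 60 min at 25 °C in Tris-HCl buffer (50 mM, pH 7.4, 0.5 mM EDTA) with Wistar rat liver α1B receptor. 10 μM phentolamine set non-specific binding.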

[4] = compound at 0.1 μM, [3H]MK-912, repeat datapoints each shown
[5] = compound at 0.03 μM, [3H]Rauwolscine, repeat datapoints each shown, 0.03 µM
[6] = compound at 0.1 μM, [3H]Prazosin, repeat datapoints each shown
[7] = 0.03 μM compound, read-out: Percentage inhibition of ligand binding, Adrenergic α2B
[8] = read-out: Percentage inhibition of ligand binding, Adrenergic α2A (0.1 μM), compound at 0.1 μM, [3H]MK-912, repeat datapoints each shown
[9] = read-out: Percentage inhibition of ligand binding, Adrenergic α2B (0.03 μM), compound at 0.03 μM, [3H]Rauwolscine, repeat datapoints each shown
[10] = read-out: Percentage inhibition of ligand binding, Adrenergic α1B (0.1 μM), compound at 0.1 μM, [3H]Prazosin, repeat datapoints each shown

Percentage inhibition of ligand binding, Adrenergic α2A (0.1 μM) [1, 4]: 36% | Percentage inhibition of ligand binding, Adrenergic α2B (0.03 μM) [2, 5]: 93% | Percentage inhibition of ligand binding, Adrenergic α1B (0.1 μM) [3, 6]: 82%
Structure (SMILES): Cc1ccc2c(c1)c1c(n2CC(OC(=O)c2ccncc2)c2ccncc2)CCN(C)C1 (single isomer, unassigned) [147b, isonicotinic acid 2-(2,8-dimethyl-1,2,3,4-tetrahydro-pyrido[4,3-b]indol-5-yl)-1-pyridin-4-yl-ethylester]

Percentage inhibition of ligand binding, Adrenergic α2A ([1]; 0.1 μM compound): 45% | inhibition at 0.03 µM [2, 7]: 85% | Percentage inhibition of ligand binding, Adrenergic α1B ([3]; 0.1 μM compound): 66%
Structure (SMILES): Cc1ccc2c(c1)c1c(n2CC(C)(c2cnccn2)N(C)C)CCN2CCCC12 (single isomer, unassigned) [II-6a, dimethyl-[1-methyl-2-(9-methyl-1,2,3,4,5,10c-hexahydro-3a,6-diaza-cyclopenta[c]fluoren-6-yl)-1-pyrazin-2-yl-ethyl]-amine]

inhibition at 0.1 µM [1, 8]: 3% | inhibition at 0.03 µM [2, 9]: 72% | inhibition at 0.1 µM [3, 10]: 53%
Structure (SMILES): Cc1ccc2c(c1)c1c(n2CC(O)c2cnc[nH]2)CCN2CCCC12 (stereo not shown) [II-140, 1-(1H-imidazol-5-yl)-2-(10-methyl-2,3,5,6-tetrahydro-1H-indolizino[7,8-b]indol-7(11cH)-yl)ethanol]

Ki [1]: 13.1 nM | Percentage inhibition of ligand binding, Adrenergic α2A (0.1 μM) [1, 4]: 77% | inhibition at 0.03 µM ([1]; read-out: Percentage inhibition of ligand binding, Adrenergic α2A (0.03 μM), compound at 0.03 μM, [3H]MK-912, repeat datapoints each shown): 50% | inhibition at 0.1 µM [1, 8]: 74% | Percentage inhibition of ligand binding, Adrenergic α2B (0.03 μM) [2, 5]: 106% | Ki ([2]; read-out: Ki α2B): 0.49 nM | inhibition at 0.03 µM [2, 9]: 102% | Percentage inhibition of ligand binding, Adrenergic α1B (0.1 μM) [3, 6]: 86% | inhibition at 0.03 µM ([3]; read-out: Percentage inhibition of ligand binding, Adrenergic α1B (0.03 μM), compound at 0.03 μM, [3H]Prazosin, repeat datapoints each shown): 56% | inhibition at 0.1 µM [3, 10]: 84%
Structure (SMILES): Cc1ccc2c(c1)c1c(n2CC(C)(O)c2ccc(C)nc2)CCN2CCCC12 (single isomer, unassigned) [II-128b, 1-(9-methyl-1,2,3,4,5,10c-hexahydro-3a,6-diaza-cyclopenta[c]fluoren-6-yl)-2-(6-methyl-pyridin-3-yl)-propan-2-ol]

Percentage inhibition of ligand binding, Adrenergic α2A ([1]; compound at 0.1 μM, [3H]MK-912, repeat assays, each datapoint shown): 11% | Percentage inhibition of ligand binding, Adrenergic α2B ([2]; compound at 0.03 μM, [3H]Rauwolscine, repeat assays, each datapoint shown, 0.03 µM): 33% | Percentage inhibition of ligand binding, Adrenergic α1B ([3]; compound at 0.1 μM, [3H]Prazosin, repeat assays, each datapoint shown): 12%
Structure (SMILES): COc1cccc2c3c(n(CC(O)c4ccncc4)c12)CCN(C)C3 (single isomer, unassigned) [44a, 2-(6-methoxy-2-methyl-3,4-dihydro-1H-pyrido[4,3-b]indol-5(2H)-yl)-1-(pyridin-4-yl)ethanol]

inhibition at 0.1 µM ([1]; 0.1 μM compound, read-out: Percentage inhibition of ligand binding, Adrenergic α2A): 9% | inhibition at 0.03 µM [2, 7]: 4% | inhibition at 0.1 µM ([3]; 0.1 μM compound, read-out: Percentage inhibition of ligand binding, Adrenergic α1B): 2%
Structure (SMILES): Cc1cc2c3c(n(CC(C)(O)c4cccnc4)c2cn1)CCN1CCCC31 (stereo not shown) [II-5]

inhibition at 0.1 µM ([1]; compound at 0.1 μM, [3H]MK-912, repeat assays, each datapoint shown, read-out: Percentage inhibition of ligand binding, Adrenergic α2A): 10% | inhibition at 0.03 µM ([2]; compound at 0.03 μM, [3H]Rauwolscine, repeat assays, each datapoint shown, read-out: Percentage inhibition of ligand binding, Adrenergic α2B): 26% | inhibition at 0.1 µM ([3]; compound at 0.1 μM, [3H]Prazosin, repeat assays, each datapoint shown, read-out: Percentage inhibition of ligand binding, Adrenergic α1B): 8%
Structure (SMILES): CC(O)c1ccc2c(c1)c1c(n2CC(O)c2ccncc2)CCN(C)C1 (stereo not shown) [compound 70]

Percentage inhibition of ligand binding, Adrenergic α2A (0.1 μM) [1, 4]: 13% | Percentage inhibition of ligand binding, Adrenergic α2B (0.03 μM) [2, 5]: 87% | Percentage inhibition of ligand binding, Adrenergic α1B (0.1 μM) [3, 6]: 19%
Structure (SMILES): CC(O)(Cn1c2c(c3cc(Cl)cnc31)C1CCCN1CC2)c1cccnc1 (single isomer, unassigned) [IV-210d]

Percentage inhibition of ligand binding, Adrenergic α2A (0.1 μM) [1, 4]: 57% | Percentage inhibition of ligand binding, Adrenergic α2B (0.03 μM) [2, 5]: 102% | Percentage inhibition of ligand binding, Adrenergic α1B (0.1 μM) [3, 6]: 32%
Structure (SMILES): CC1Cc2c(c3cc(Cl)ccc3n2CC(C)(O)c2cccnc2)CN1C (single isomer, unassigned) [II-147a, 1-(8-chloro-2,3-dimethyl-3,4-dihydro-1H-pyrido[4,3-b]indol-5(2H)-yl)-2-(pyridin-3-yl)propan-2-ol]

inhibition at 0.1 µM [1, 8]: 12% | inhibition at 0.03 µM [2, 9]: 1% | inhibition at 0.1 µM [3, 10]: 2%
Structure (SMILES): CN1CCc2c(c3ccncc3n2CC(C)(O)c2cccnc2)C1 (stereo not shown) [II-129]

Percentage inhibition of ligand binding, Adrenergic α2A (0.1 μM) [1, 4]: 62% | Percentage inhibition of ligand binding, Adrenergic α2B (0.03 μM) [2, 5]: 100% | Percentage inhibition of ligand binding, Adrenergic α1B (0.1 μM) [3, 6]: 92%
Structure (SMILES): Cc1cc(C)c2c(c1)c1c(n2CC(O)c2ccncc2)CCN2CCCC12 (single isomer, unassigned) [II-125a, 2-(8,10-dimethyl-2,3,5,6-tetrahydro-1H-indolizino[7,8-b]indol-7(11cH)-yl)-1-(pyridin-4-yl)ethanol]
